Results reported in US20240174727A1, “LONG-ACTING NATRIURETIC PEPTIDES AND USES THEREOF” (Eli Lilly and Company, priority 2022, published 2024).
Values joined by “and” are separate entries in the source; they are usually repeats but may differ in a detail not shown here. Identical values can stand only once. Numbered stars: 1 amine (or outer) side, 2 acyl side, 3 side chain; on linkers, the order of the positions; unused ones are H or OH. Bridge positions count the residues as written; N and C are the ends. Square brackets hold non-standard residues; d marks the D form. * marks the point of attachment. PEG24 = NCCOCCOCCOCCOCCOCCOCCOCCOCCOCCOCCOCCOCCOCCOCCOCCOCCOCCOCCOCCOCCOCCOCCOCCOCCC(=O)O; C20 diacid = O=C(O)CCCCCCCCCCCCCCCCCCC(=O)*; γGlu = O=C(O)[C@H](CCC(=O)[*:2])N[*:1]; CH2 = C([*:1])[*:2]; βAla = NCCC(=O)O

What was measured:
[1] = Pharmacokinetics in male Sprague Dawley rats; format: in vivo; conditions: rat, sc, mean, single subcutaneous administration of 200 nMol/kg, plasma; for half-life: read-out: t½ (converted)
Description: The pharmacokinetics of the exemplary analogs are evaluated following a single subcutaneous administration of […] to male Sprague Dawley rats. Blood samples are collected over 120 hours, and resulting individual plasma concentrations are used to calculate pharmacokinetic parameters. Peptide plasma (K3 EDTA) concentrations are determined using a qualified LC/MS method that measured the intact mass of the ANP polypeptide. Each peptide and an analog as an internal standard are extracted from 100% specie specified plasma using methanol with 0.1% formic acid. A Thermo Q-Exactive, High Resolution Instrument, and a Thermo Easy Spray PepMap are combined for LC/MS detection.

[2] = tested on: SAUNA Mouse Model; assay: Salty drinking water/Unilateral Nephrectomy/Aldosterone (SAUNA) mouse model of heart failure; format: in vivo, male C57BL/6N mice; conditions: SAUNA mice, once daily SC 0.4 mg/kg
Source text: The effect of Exemplary ANP polypeptides is investigated in the Salty drinking water/Unilateral Nephrectomy/Aldosterone (SAUNA) Mouse Model, murine model of heart failure induced by chronic aldosterone infusion. After acclimation for approximately 2 weeks, heart failure is induced in male C57BL/6N (Taconic) mice by uninephrectomy, continuous d-aldosterone infusion and 1.0% sodium chloride in drinking water for 4 weeks (Tanaka et al., 2016; Valero-Munoz, Li, Wilson, Boldbaatar, et al., 2016; Valero-Munoz, Li, Wilson, Hulsmans, et al., 2016; Yang, Kong, Shuai, Zhang, & Huang, 2020; Yoon et al., 2021). […] The pressure volume (PV) catheter is introduced into the left ventricle via apical stab with a 27G needle. Calibration of the PV catheter is performed according to the manufacturer's instructions. Data are analyzed with LabChart pro software (AD Instruments). After PV loop measurements, mice are sacrificed, and ratio of heart weight to tibia length is used for indicator of hypertrophy.

[3] = molecular target: T1, rat NPRA (Rattus norvegicus, UniProt P18910); assay: Rat NPRA cGMP activity assay (HTRF) in HEK293 cells overexpressing NPRA; format: cell-based; conditions: assay buffer with 0.1% casein, read-out: cGMP Assay (EC50, pM) w/Casein rNPRA
T1 construct: Full-Length cDNA Cloning and Generation of Cell Lines Overexpressing Natriuretic Peptide Receptors (NPRs); expressed in transfected cells; host or cells: Jump-in T-Rex HEK293 cells, pJTI R4 CMV-TO MCS pA vector, tetracycline induction
T1 sequence (P18910 29-1057): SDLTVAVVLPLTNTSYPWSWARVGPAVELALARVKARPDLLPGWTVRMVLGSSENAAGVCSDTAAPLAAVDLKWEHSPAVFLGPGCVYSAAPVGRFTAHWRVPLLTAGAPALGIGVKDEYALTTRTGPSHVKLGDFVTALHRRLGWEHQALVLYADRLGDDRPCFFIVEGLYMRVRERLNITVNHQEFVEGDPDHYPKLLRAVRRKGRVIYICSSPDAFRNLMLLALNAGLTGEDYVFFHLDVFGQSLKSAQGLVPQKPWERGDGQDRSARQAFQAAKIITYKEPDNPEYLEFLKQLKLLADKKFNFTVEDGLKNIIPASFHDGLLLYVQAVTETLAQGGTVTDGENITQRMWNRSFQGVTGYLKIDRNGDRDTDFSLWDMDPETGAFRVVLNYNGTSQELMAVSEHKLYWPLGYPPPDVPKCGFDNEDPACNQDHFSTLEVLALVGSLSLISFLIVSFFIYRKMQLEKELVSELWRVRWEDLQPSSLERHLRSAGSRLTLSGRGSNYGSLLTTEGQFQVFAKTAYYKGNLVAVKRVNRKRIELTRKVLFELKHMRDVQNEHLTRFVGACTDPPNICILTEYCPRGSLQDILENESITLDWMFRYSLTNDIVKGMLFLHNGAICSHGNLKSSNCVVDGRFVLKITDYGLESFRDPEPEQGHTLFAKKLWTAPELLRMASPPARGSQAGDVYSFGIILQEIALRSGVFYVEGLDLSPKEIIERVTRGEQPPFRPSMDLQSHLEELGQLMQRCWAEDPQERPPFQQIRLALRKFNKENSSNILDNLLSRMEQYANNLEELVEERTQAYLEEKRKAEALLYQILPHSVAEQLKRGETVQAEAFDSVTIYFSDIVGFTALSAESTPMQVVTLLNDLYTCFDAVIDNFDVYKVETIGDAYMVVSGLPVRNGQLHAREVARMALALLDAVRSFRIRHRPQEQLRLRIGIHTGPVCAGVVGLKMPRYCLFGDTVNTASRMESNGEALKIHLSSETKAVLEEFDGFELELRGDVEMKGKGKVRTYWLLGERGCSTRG
Procedure, shortened: (§1)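 cGMP measured by HTRF and scaled between buffer (minimum) and 100 nM amidated rat ANP (maximum). Polypeptides in 10-fold steps from 10 μM to 1 pM, 0.5% DMSO, 0.5 mM IBMX, 40 min at room temperature, on induced NPRA-overexpressing HEK293 cells.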

[4] = molecular target: T2, human NPRA (Homo sapiens, UniProt P16066); assay: Human NPRA cGMP activity assay (HTRF) in HEK293 cells overexpressing NPRA; format: cell-based
T2 construct: Full-Length cDNA Cloning and Generation of Cell Lines Overexpressing Natriuretic Peptide Receptors (NPRs); expressed in transfected cells; host or cells: Jump-in T-Rex HEK293 cells, pJTI R4 CMV-TO MCS pA vector, tetracycline induction
T2 sequence (P16066 33-1061): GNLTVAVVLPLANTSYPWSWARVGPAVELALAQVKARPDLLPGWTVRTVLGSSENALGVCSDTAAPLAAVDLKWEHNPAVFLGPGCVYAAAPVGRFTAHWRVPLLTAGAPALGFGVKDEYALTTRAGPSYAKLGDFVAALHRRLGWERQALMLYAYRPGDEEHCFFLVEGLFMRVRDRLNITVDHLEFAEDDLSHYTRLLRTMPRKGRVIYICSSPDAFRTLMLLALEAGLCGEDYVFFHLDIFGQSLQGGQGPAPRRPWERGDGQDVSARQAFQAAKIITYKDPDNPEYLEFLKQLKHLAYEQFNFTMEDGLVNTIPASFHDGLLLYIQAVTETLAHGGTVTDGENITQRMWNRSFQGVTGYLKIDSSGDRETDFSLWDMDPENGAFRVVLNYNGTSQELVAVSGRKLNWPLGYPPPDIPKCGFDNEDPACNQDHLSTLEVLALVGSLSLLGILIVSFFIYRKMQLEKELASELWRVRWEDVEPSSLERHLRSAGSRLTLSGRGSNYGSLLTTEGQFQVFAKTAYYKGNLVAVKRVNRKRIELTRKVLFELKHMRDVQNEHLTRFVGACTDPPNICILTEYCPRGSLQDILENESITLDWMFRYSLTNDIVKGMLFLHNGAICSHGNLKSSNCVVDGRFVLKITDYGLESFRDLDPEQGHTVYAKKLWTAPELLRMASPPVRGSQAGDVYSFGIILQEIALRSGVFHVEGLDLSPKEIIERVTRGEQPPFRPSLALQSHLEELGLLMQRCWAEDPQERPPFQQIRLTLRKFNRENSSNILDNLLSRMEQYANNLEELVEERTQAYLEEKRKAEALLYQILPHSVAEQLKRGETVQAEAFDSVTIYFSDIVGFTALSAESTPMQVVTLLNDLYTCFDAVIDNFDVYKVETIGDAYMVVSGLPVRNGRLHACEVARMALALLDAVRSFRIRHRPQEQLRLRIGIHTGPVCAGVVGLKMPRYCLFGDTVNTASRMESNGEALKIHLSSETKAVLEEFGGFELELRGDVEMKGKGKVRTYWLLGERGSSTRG
Procedure, shortened: as §1

[5] = molecular target: human NPRB (natriuretic peptide receptor B) (human) (UniProt P20594); assay: cell-based or functional assay
human NPRB (natriuretic peptide receptor B) (human), sequence (P20594 23-1047): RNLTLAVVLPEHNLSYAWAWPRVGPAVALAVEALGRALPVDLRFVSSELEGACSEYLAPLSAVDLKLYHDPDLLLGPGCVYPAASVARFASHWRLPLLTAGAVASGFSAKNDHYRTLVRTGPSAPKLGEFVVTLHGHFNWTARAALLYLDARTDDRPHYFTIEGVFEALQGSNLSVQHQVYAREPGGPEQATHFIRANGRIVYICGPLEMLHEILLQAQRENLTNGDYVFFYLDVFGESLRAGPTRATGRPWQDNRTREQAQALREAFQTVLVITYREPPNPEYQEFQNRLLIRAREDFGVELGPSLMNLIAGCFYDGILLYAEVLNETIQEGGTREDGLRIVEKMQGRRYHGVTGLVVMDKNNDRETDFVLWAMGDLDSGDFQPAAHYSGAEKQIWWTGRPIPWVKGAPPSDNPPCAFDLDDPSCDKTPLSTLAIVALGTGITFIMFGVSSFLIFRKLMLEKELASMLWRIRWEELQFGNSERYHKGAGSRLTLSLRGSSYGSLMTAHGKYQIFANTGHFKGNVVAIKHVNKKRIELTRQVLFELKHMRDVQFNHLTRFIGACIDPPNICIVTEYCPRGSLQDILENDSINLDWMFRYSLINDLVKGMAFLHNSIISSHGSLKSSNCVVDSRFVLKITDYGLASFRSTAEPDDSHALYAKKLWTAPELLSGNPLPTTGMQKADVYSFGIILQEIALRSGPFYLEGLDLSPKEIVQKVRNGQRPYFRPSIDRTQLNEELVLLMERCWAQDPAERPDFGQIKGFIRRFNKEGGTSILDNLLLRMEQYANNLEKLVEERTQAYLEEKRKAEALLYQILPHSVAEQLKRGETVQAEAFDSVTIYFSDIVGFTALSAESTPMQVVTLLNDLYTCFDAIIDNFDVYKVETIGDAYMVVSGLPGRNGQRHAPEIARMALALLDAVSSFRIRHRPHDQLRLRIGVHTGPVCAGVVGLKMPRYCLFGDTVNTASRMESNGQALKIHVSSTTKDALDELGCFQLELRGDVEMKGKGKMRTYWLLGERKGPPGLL

[6] = molecular target: rat NPRB (natriuretic peptide receptor B) (rat) (UniProt P16067); assay: cell-based or functional assay
rat NPRB (natriuretic peptide receptor B) (rat), sequence (P16067 17-1047): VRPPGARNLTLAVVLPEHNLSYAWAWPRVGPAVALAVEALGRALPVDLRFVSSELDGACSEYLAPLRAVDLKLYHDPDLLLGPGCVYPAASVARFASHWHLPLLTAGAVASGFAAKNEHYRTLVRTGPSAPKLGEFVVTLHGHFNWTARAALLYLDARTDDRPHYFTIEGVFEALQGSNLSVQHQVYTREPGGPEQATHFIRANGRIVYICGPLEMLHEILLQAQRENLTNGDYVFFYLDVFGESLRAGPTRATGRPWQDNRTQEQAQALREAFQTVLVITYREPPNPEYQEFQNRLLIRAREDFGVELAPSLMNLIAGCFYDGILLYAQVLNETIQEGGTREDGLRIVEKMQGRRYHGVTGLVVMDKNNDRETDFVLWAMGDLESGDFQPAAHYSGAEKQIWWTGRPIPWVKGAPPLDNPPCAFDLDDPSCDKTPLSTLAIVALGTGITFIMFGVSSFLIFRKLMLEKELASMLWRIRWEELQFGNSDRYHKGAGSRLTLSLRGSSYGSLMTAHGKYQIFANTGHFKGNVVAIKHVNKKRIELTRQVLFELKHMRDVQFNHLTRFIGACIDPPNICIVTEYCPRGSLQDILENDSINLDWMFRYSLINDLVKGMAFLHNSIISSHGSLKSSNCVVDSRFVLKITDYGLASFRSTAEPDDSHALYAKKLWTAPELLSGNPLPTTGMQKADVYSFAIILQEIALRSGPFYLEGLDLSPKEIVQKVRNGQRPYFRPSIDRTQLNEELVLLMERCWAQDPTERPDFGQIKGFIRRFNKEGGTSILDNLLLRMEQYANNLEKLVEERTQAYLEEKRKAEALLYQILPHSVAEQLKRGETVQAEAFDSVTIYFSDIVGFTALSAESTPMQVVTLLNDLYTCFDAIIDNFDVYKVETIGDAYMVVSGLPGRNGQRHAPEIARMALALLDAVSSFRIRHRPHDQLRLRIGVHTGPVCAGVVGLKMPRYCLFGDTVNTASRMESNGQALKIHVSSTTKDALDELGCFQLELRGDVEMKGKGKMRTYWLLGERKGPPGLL

[7] = molecular target: human NPRA (human) (UniProt P16066); assay: cell-based or functional assay

Molecule	CL/F [1]	half-life [1]	EC50 [3]	also measured
CC[C@H](C)[C@@H]1NC(=O)[C@H](CCCNC(=N)N)NC(=O)[C@H](CC(=O)O)NC(=O)[C@H]([C@@H](C)CC)NC(=O)[C@H](CCCNC(=N)N)NC(=O)CNC(=O)CNC(=O)[C@H](Cc2ccccc2)NC(=O)[C@@H](NC(=O)[C@H](CO)NC(=O)[C@H](CO)NC(=O)[C@H](CCCNC(=N)N)NC(=O)[C@H](CCCNC(=N)N)NC(=O)[C@H](CC(C)C)NC(=O)[C@H](CO)NC(=O)CNC(=O)[C@H](CCCCN)NC(=O)[C@H](CCC(=O)O)NC(=O)[C@H](CCCCN)NC(=O)[C@H](CCC(=O)O)NC(=O)[C@H](CCCCN)NC(=O)[C@H](CCC(=O)O)NC(=O)CC[C@H](NC(=O)CCCCCCCCCCCCCCCCCCC(=O)O)C(=O)O)CSSC[C@@H](C(=O)N[C@@H](CC(N)=O)C(=O)N[C@@H](CO)C(=O)N[C@@H](Cc2ccccc2)C(=O)N[C@@H](CCCNC(=N)N)C(=O)N[C@@H](Cc2ccc(O)cc2)C(N)=O)NC(=O)CNC(=O)[C@H](CC(C)C)NC(=O)CNC(=O)[C@H](CO)NC(=O)[C@H](CCC(N)=O)NC(=O)[C@H](C)NC(=O)CNC1=O [Example 8]	0.698 mL/min/kg	15 h	493 pM	blood pressure [2]: decrease in blood pressure; left ventricle diastolic pressure ([2]; PV catheter): reduced left ventricle diastolic pressure; heart weight and tibia length ([2]; indicator of hypertrophy): decrease
CC[C@H](C)[C@@H]1NC(=O)[C@H](CCCNC(=N)N)NC(=O)[C@H](CC(=O)O)NC(=O)[C@H]([C@@H](C)CC)NC(=O)[C@H](CCCNC(=N)N)NC(=O)[C@H](CCCCN)NC(=O)CNC(=O)[C@H](Cc2ccccc2)NC(=O)[C@@H](NC(=O)[C@H](CO)NC(=O)[C@H](CO)NC(=O)[C@H](CCCNC(=N)N)NC(=O)CCNC(=O)[C@H](CCCCN)NC(=O)[C@H](CCC(=O)O)NC(=O)CCOCCOCCOCCOCCOCCOCCOCCOCCOCCOCCOCCOCCOCCOCCOCCOCCOCCOCCOCCOCCOCCOCCOCCOCCNC(=O)CNC(=O)[C@H](CCCCN)NC(=O)[C@H](CCC(=O)O)NC(=O)[C@H](CCCCN)NC(=O)[C@H](CCC(=O)O)NC(=O)[C@H](CCCCN)NC(=O)[C@H](CCC(=O)O)NC(=O)CC[C@H](NC(=O)CCCCCCCCCCCCCCCCCCC(=O)O)C(=O)O)CSCSC[C@@H](C(=O)N2CCC[C@H]2C(=O)N[C@@H](CO)C(=O)N[C@@H](Cc2ccccc2)C(=O)N[C@@H](CCCNC(=N)N)C(=O)N[C@@H](Cc2c[nH]cn2)C(=O)NCC(=O)N[C@@H](CO)C(=O)N2CCC[C@H]2C(=O)N[C@@H](CO)C(=O)N[C@@H](CO)C(=O)NCC(=O)N[C@@H](C)C(=O)N2CCC[C@H]2C(=O)N2CCC[C@H]2C(=O)N2CCC[C@H]2C(=O)N[C@@H](CO)C(N)=O)NC(=O)CNC(=O)[C@H](CC(C)C)NC(=O)CNC(=O)[C@H](CO)NC(=O)[C@H](CCC(N)=O)NC(=O)[C@H](Cc2c[nH]cn2)NC(=O)CNC1=O [Example 4]	0.0717 mL/min/kg	15 h	22500 pM	
{C20 diacid-γGlu}-EKEKEKG[PEG24]EK[βAla]RSSCFGGKIDRIGHYSGLGCPSFRHGSPSSGAPPPS-NH2 (linker 15-31 via CH2) [Example 6]	0.108 mL/min/kg	17 h		EC50 ([4]; cGMP Assay (EC50, pM) w/Casein hNPRA, assay buffer with 0.1% casein): 1530 pM
human CNP-22 (from UniProt P23582 105-126) (peptide)				cGMP production (HTRF) in HEK293 cells overexpressing NPRB; concentration that defines the 100% response [5]: 1 µM; cGMP production (HTRF) in HEK293 cells overexpressing NPRB; concentration that defines the 100% response [6]: 1 µM
HOOC-(CH2)18-CO-(γGlu)-EKEKEKG-PEG24-EK-βAla-RSS[…]PSFRHGGP-NH2 (peptide)				cGMP Assay (EC50, pM) w/BSA, hNPRA [7]: 2960 pM and 1270 pM; cGMP Assay (EC50, pM) w/Casein, hNPRA [7]: 1010 pM and 669 pM
CC[C@H](C)[C@@H]1NC(=O)[C@H](CCCNC(=N)N)NC(=O)[C@H](CC(=O)O)NC(=O)[C@H]([C@@H](C)CC)NC(=O)[C@H](CCCNC(=N)N)NC(=O)CNC(=O)CNC(=O)[C@H](Cc2ccccc2)NC(=O)[C@@H](NC(=O)[C@H](CO)NC(=O)[C@H](CO)NC(=O)[C@H](CCCNC(=N)N)NC(=O)[C@H](CCCNC(=N)N)NC(=O)[C@H](Cc2ccncc2)NC(=O)[C@H](CO)NC(=O)CNC(=O)[C@H](CCCCN)NC(=O)[C@H](CCC(=O)O)NC(=O)[C@H](CCCCN)NC(=O)[C@H](CCC(=O)O)NC(=O)[C@H](CCCCN)NC(=O)[C@H](CCC(=O)O)NC(=O)CC[C@H](NC(=O)CCCCCCCCCCCCCCCCCCC(=O)O)C(=O)O)CSSC[C@@H](C(=O)N2CCC[C@H]2C(=O)N[C@@H](CO)C(=O)N[C@@H](Cc2ccccc2)C(=O)N[C@@H](CCCNC(=N)N)C(=O)N[C@@H](Cc2c[nH]cn2)C(=O)NCC(=O)NCC(=O)N2CCC[C@H]2C(=O)N[C@@H](CO)C(=O)N[C@@H](CO)C(=O)NCC(=O)N[C@@H](C)C(=O)N2CCC[C@H]2C(=O)N2CCC[C@H]2C(=O)N2CCC[C@H]2C(=O)N[C@@H](CO)C(N)=O)NC(=O)CNC(=O)[C@H](CC(C)C)NC(=O)CNC(=O)[C@H](CO)NC(=O)[C@H](CCC(N)=O)NC(=O)[C@H](Cc2c[nH]cn2)NC(=O)CNC1=O [Example 1]	0.343 mL/min/kg	11 h		EC50 ([4]; cGMP Assay (EC50, pM) w/BSA hNPRA, assay buffer with 0.1% BSA): 11600 pM
